Converted amounts (≈) assume the structure as drawn.
Legend:
[1] = Measurement of solubility (HPLC); format: physicochemical; conditions: thermodynamic from solid; for solubility at 30 min: after 30 min; for solubility at 24 h: after 24 h
Description: <HPLC Measurement Conditions>
Device: HPLC 1100series, Agilent
Column: YMC-Pack ODS-AM AM-302 (4.6 mm ID×150 mm long)
Column temperature: 25° C.
Mobile phase: 20 mM potassium phosphate monobasic (pH 3.0)/acetonitrile (60:40, isocratic)
Sample rack temperature: 25° C.
Sample injection volume: 10 μL

Blood kinetics in dogs = format: in vivo; conditions: male, beagle, dog, plasma; solubilized solution (WellSolve), oral gavage 1 mg/kg vs intravenous 1 mg/kg, fasted dogs; read-out: bioavailability (BA)
Description: The kinetic profiles of compound A and the salt thereof (the compound prepared in Example 9) in blood were evaluated in male beagle dogs under fasting conditions. […] For the intravenous and oral solution administrations, a solubilized solution of Compound A dissolved in WellSolve (Celeste Inc.) heated to 60° C. was used. Using the solubilized solutions, doses of 1 mg/1 mL/kg were rapidly administered intravenously with a syringe via a forelimb cephalic vein, and doses of 1 mg/5 mL/kg were administered by gavage using a catheter. […] The concentration of Compound A in the plasma was measured by LC/MS/MS (UPLC/Xevo, Waters). The area under the curve (AUC, ng·h/mL), maximum concentration (Cmax, μg/mL) and clearance (CL, mL/hr/kg) were calculated from the plasma concentration. The bioavailability (BA) of Compound A was calculated from the AUC of the oral dose and the AUC of the intravenous dose.
Moreover, for the oral suspension administration a liquid was prepared by finely pulverizing Compound A and suspending the particles in an aqueous solution of 0.5% methylcellulose, and then administering doses of 3 and 10 mg/kg in the same manner as the forced oral administration by gavage described above. […] The BA values for each administration method and at each concentration were calculated as relative BA by assigning the BA of Compound A in the solubilized solution a value of 100%.

[2] = FaSSIF (artificial intestinal fluid), FaSSIF (pH 6.5)
[3] = FeSSIF (artificial intestinal fluid), FeSSIF (pH 6.5)
[4] = Japanese Pharmacopoeia dissolution test I liquid, simulated gastric fluid, JP dissolution test I liquid (pH 1.2)
[5] = Japanese Pharmacopoeia dissolution test II liquid, aqueous buffer, JP dissolution test II liquid (pH 6.8)
[6] = diluted McIlvaine buffer, aqueous buffer, Dilute McIlvaine buffer (pH 4.0)
[7] = diluted McIlvaine buffer, aqueous buffer, Dilute McIlvaine buffer (pH 7.4)

Row | solubility at 30 min [1, 2] [µg/mL] | solubility at 24 h [1, 2] [µg/mL] | solubility at 30 min [1, 3] [µg/mL] | solubility at 24 h [1, 3] [µg/mL] | solubility at 30 min [1, 4] [µg/mL] | solubility at 24 h [1, 4] [µg/mL] | solubility at 30 min [1, 5] [µg/mL] | solubility at 24 h [1, 5] [µg/mL] | solubility at 30 min [1, 6] [µg/mL] | solubility at 24 h [1, 6] [µg/mL] | solubility at 30 min [1, 7] [µg/mL] | solubility at 24 h [1, 7] [µg/mL] | solubility at 30 min ([1]; Purified water) [µg/mL] | solubility at 24 h ([1]; Purified water) [µg/mL] | bioavailability (Blood kinetics in dogs) [%] | SMILES
1 | 145 | 118 | 356 | 301 | 1220 | 1210 | 112 | 111 | 125 | 117 | 103 | 106 | 130 | 144 |  | CC#CC(=O)N1CC[C@@H](n2c(=O)n(-c3ccc(Oc4ccccc4)cc3)c3c(N)ncnc32)C1.Cl [Example 9, 6-amino-9-[(3R)-1-(2-butynoyl)-3-pyrrolidinyl]-7-(4-phenoxyphenyl)-7,9-dihydro-8H-purin-8-one hydrochloride]
2 | 35 (≈ 77 µM) | 36 (≈ 79.2 µM) | 67 (≈ 147 µM) | 84 (≈ 185 µM) | 550 (≈ 1210 µM) | 717 (≈ 1580 µM) | 31 (≈ 68.2 µM) | 32 (≈ 70.4 µM) | 30 (≈ 66 µM) | 34 (≈ 74.8 µM) | 29 (≈ 63.8 µM) | 29 (≈ 63.8 µM) | 32 (≈ 70.4 µM) | 34 (≈ 74.8 µM) | 115 | CC#CC(=O)N1CC[C@@H](n2c(=O)n(-c3ccc(Oc4ccccc4)cc3)c3c(N)ncnc32)C1 [Compound A, 6-amino-9-[(3R)-1-(2-butynoyl)-3-pyrrolidinyl]-7-(4-phenoxyphenyl)-7,9-dihydro-8H-purin-8-one]

— patent US9199997B2, “Purinone derivative hydrochloride” (ONO PHARMACEUTICAL CO., LTD., priority 2011, dated 2015)
